According to patent publication US8278265B2, “Methods, kits and compositions comprising crotamine” (Fundacao de Amparo a Pesquisa do Estado de Sao Paulo—FAPESP, priority 2005, dated 2012):

Experiments:
mice = conditions: injected intraperitoneally; cited from earlier work
[1] = system: human limfoblastoids, B16 murine melanoma cells, HCT116 colon cancer cells, human mesenchymal stem cells from bone marrow and dental pulp; experiment: In vitro transfection with crotamine-DNA aggregates; assay type: cell-based
[2] = system: actively proliferating cells; experiment: Marker for actively proliferating cells (BrDU co-labeling); assay type: cell-based, mice; conditions: FIG. 8E-H
Text: The hanging drop method was used, with some amendments, to induce the differentiation of ES cells from USP-1 line (Wobus, A. M., Wallukat, G., Hescheler, J. (1991), Pluripotent Mouse Embryonic Cells are Able to Differentiate into Cardiomyocytes Expressing Chronotropic Responses to Adrenergic and Cholinergic Agents and Ca^2+ Channel Blockers, Differentiation 48, 173-182). Briefly, ES cell suspensions without fibroblasts were obtained, collected with 0.25% trypsin/EDTA (Gibco, U.S.A.). Said suspension was diluted up to 3.5×10^4 cells/ml and dropped by using a micropipette (25 μl per drop) on the Petri dish cap (10 cm). Drops adhered to the surface were turned upside down over the plate already containing 5 ml PBS. After three days in a CO2 oven, in the hanging drop culture in appropriate culture medium for ES, with no LIF, aggregates are formed, known as embryonic bodies (EBs). EBs were later transferred to another plate (35 mm) with a 1% agarose layer, and maintained in the CO2 oven at 37° C. On the fifth day, EBs were transferred to microscope slides, on another Petri dish, where they adhered and started differentiating into a monolayer.
Embryonic bodies, obtained according to the protocol as described above, after three days, adhered to small glass slides. […] Microscope slides were assembled in a PBS/glycerol solution (1:1) and analysed in a confocal microscope. […]

B16F10 cells = experiment: Tumor treatment with natural crotamine; assay type: in vivo, Balb/c mouse
Experimental: The cells were maintained in Dulbecco's modified Eagle's cell culture medium (DMEM; Invitrogen, Carlsbad, Calif.) supplemented with 15% fetal calf serum (FCS; Invitrogen). The cells were kept at 37° C. with humidity and 5% CO2. After preparing a cell suspension with about 5×10^6 cells/ml of PBS [phosphate buffered solution], approximately 0.2 ml of this suspension was subcutaneously or endovenously (retroorbital injection) injected into each Balb/c mouse, of 4 to 6 weeks-old with body weight between 16 to 20 g. For negative control, the animals were injected with 0.2 ml of PBS. Before setting up the experiments, the animals were kept under 12 hour light-dark cycle, and were allowed to have water and food ad libitum. All animals were caged and handled under ethical conditions according to international rules of animal care, stated by the International Animal Welfare Recommendations, and in accordance with the Guidelines for the Use of Animals in Biochemical Research
30 minutes after endogenous injection of B16F10 cells, as described above, the animals were treated with 1 μg of crotamine/animal by daily subcutaneous injection, during 21 days.

chromosomes = experiment: Chromosome analysis; assay type: cell-based; conditions: 1 μM, compared with DAPI or 5-BrDU staining
Experimental: 1 μM crotamine conjugated to Cy3 was added to the culture of ES-USP1 cells, human lymphoblastoids and primary fibroblasts for 1, 3, 6 and 24 hours. Cells were collected and treated according to the routine cytogenetic protocol, with no addition of colchicine. Digital images were obtained with refrigerated CCD (PCO, VC44) and processed by using ISIS software (MetaSystem).

[3] = system: embryonic stem cells (ES) of mice; experiment: Embriotoxicity assay: cytotoxic effects on embryonic stem cells; assay type: cell-based; conditions: submicromolar concentrations, between 10^−6 and 10^−7 M; five days
Experimental: Bearing in mind that crotamine is a toxin, cytotoxic effects were tested on embryonic stem cells (ES) of mice which are non-differentiated cells, derived from the embryonic bud of blastocytes, and have as their main characteristic their pluripotence, an ability to differentiate to different types of tissues.
Such cells were chosen bearing in mind the usefulness of crotamine application for gene therapy (by means of stem cells) and transgenesis, as a carrier of other molecules to within cells. Four different concentrations were tested for five days. […] The assay was as follows.
Embryonic bodies (EBs) were obtained by the hanging drop method, as described above, using culture medium containing crotamine at various concentrations (100 μM to 0.1 μM), changing the medium every two to three days. To analyze the crotamine location in EBs under development, crotamine was substituted with crotamine linked to Cy3 (Cy3-crotamine) during the final 24 hours of incubation. Compact murine morulae (8-16 cells) were obtained from the oviduct and cultivated for 24 hours at 37° C. in 5% CO2, in individual microwells of V-bottom plates (Costar) with […] microwells in M16 medium (supplier: Sigma) and Cy3-crotamine (1-0.1 μM). After 24 hours of culture, normally developed blastocyst numbers were compared within the control and the experimental group.

[4] = system: linear and/or circular double strand DNA; experiment: DNA-peptide interaction by agarose gel electrophoresis (gel shift assay); assay type: binding; conditions: various molar proportions, FIG. 6
Experimental: The interaction between crotamine and DNA was analysed by an interference assay for DNA migration in agarose gel. 1 μg DNA and an increasing concentration of crotamine was added in a total volume of 25 μl, containing 150 mM NaCl. Twenty minutes after the mixture was prepared, samples were analysed by agarose gel electrophoresis (1%), using Tris-borate-EDTA buffer, followed by visualization by staining the nucleic acid with the ethidium bromide.
The formation of the complex between the peptide and DNA was analysed by the electrophoretic mobility of the complex in agarose gel (1%, w/v) by varying the molar proportions between the peptide and the double-strand DNA. Tests were made by mixing plasmid DNA (2 or 4 μg) with 10 μg of pure crotamine, in the presence or absence of 150 mM NaCl, which were applied on agarose gel immersed in Tris borate-EDTA buffer. DNA was then observed after staining with ethidium bromide and using UV light transiluminator. Gel documentation after electrophoresis was made by using an image digitizer (model FLA3000). This system of electrophoresis allows to observe changes in the migration pattern (migration delay) due to the neutralization of nucleic acid by cationic peptide present and/or due to the formation of larger complexes between crotamine and DNA (FIG. 6). […]

Which results are given for “YKQCHKKGGHCFPKEKICLPPSSDFGKMDCRWRWK CCKKGSG (YKQCHKKGGHCFPKEKICLPPSSDFGKMDCRWRWKCCKKGSG; UniProt Q9PWF3 23-64, looked up) [crotamine]”?
time to paralysis of the hind legs (mice): less than 15 minutes; result of in vitro transfection [1]: positive results; co-location with BrDU staining in actively proliferating ES cells [2]: co-location; tumor positive animals, 18th day (B16F10 cells; 1 μg/animal daily s.c., day 18): 3; tumor positive animals, 20th day (B16F10 cells; 1 μg/animal daily s.c., day 20): 2; Total positive animals up to 21th day (B16F10 cells; 1 μg/animal daily s.c., days 10-21): 5 posit.; effect on tumor formation compared to the control group (B16F10 cells; 1 μg/animal daily subcutaneous injection, 21 days): delay or even inhibited the tumor formation; tumor positive animals, 25th day (B16F10 cells; observation after end of treatment, day 25): 9; tumor positive animals, 29th day (B16F10 cells; observation after end of treatment, day 29): 9; tumor positive animals, 35th day (B16F10 cells; observation after end of treatment, day 35): 12; tumor positive animals, 48th day (B16F10 cells; observation after end of treatment, day 48): 12; ratio of positives (B16F10 cells; up to day 21): 0.33; binding to chromosomes (chromosomes): binds to chromosomes in the metaphase; cytotoxic effect on embryonic stem cells in culture [3]: does not present any cytotoxic effect; effect of complex formation on electrophoretic mobility in agarose gel [4]: interfere in the electrophoretic mobility
